This is an account of results in patent US7812032B2 (Abbott Laboratories, priority 2006, dated 2010).

Series [1] relates to human mixed lymphocyte reaction (MLR). The series can be described thus: human mixed lymphocyte reaction (MLR) assay. Type of series: cell-based. The conditions noted are these: read-out: Human MLR IC50 ± S.E.M.
A short description of series [2]: pharmacokinetics after single intravenous dose in cynomolgus monkey. The conditions noted are these: in vivo, iv, 2.5 mg/kg. The series is classed as in vivo.

As to “40-epi-N-[2′-pyridone]-rapamycin [Example 2-pyridone, reference compound]”, the IC50 in series [1] amounted to 12.4 ± 5.3 nM. In series [2], this molecule gave a t1/2 of 2.8 h.

`COC1CC2CCC(C)C(O)(O2)C(=O)C(=O)N2CCCCC2C(=O)OC(C(C)CC2CCC(n3ccc(=O)cc3)C(OC)C2)CC(=O)C(C)C=C(C)C(O)C(OC)C(=O)C(C)CC(C)C=CC=CC=C1C` (stereo not drawn) [Example 4-pyridone, 40-epi-N-[4′-pyridone]-rapamycin, reference compound]: the IC50 in series [1] is 0.43 ± 0.2 nM. This molecule registered a t1/2 in series [2] of 13.3 h.
